Some test systems named below: CCRF-CEM; A549; ACHN; IGROV-1; SF-268; UACC-62; SF-539; MOLT-4; BT-549; NCI-H522; TK-10; SK-OV-3; COLO 205; A498; HCT-116; SF-295; U-251; MDA-MB-231; SK-MEL-2; PC-3.
What all share (experiment): NCI-60 cell line screen, 48 h

We go through 11 compounds from ChEMBL document CHEMBL1201862, “PubChem BioAssay data set” (2004).

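Grown in 96-well plates, cells were treated for 48 hours with each compound at five concentrations. Insufficient inhibition: endpoint recorded as highest concentration tested. GI50 = concentration required for 50% inhibition of growth.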 Active and inactive are the calls of the source. Cut-off read from the data, not from the text of the source: active = GI50 up to about 1.1 µM and inactive = higher.

For the compound `C(=C\c1ccco1)/c1cccc(/C=C/c2ccco2)n1`, the GI50 in the assay on CCRF-CEM, with A549, in the assay on ACHN, with IGROV-1, in the assay with SF-268 and in the assay on UACC-62 was > 50 µM (inactive) each time. For the same compound, the GI50 with SF-539, in the assay with MOLT-4, in the assay with BT-549, in the assay on NCI-H522, in the assay on TK-10 and with SK-OV-3 was > 50 µM (inactive) in each case. In addition, the GI50 in the assay on COLO 205, in the assay with A498, in the assay on HCT-116 and in the assay with SF-295 was > 50 µM (inactive) each time.
Take `CCOC(=O)c1cc(-c2ccc([N+](=O)[O-])cc2)c([N+](=O)[O-])[nH]1`: the GI50 in the assay on CCRF-CEM was 2.6 µM (inactive); with A549, 2.88 µM (inactive); in the assay on U-251 it was 3.46 µM (inactive); with ACHN it was 3.28 µM (inactive); with IGROV-1, 5.26 µM (inactive); with SF-268, 4.53 µM (inactive). The GI50 was 3.03 µM (inactive) in the assay on UACC-62; 0.37 µM (active) in the assay with MDA-MB-231; > 10 µM (inactive) in the assay with SF-539; 3.77 µM (inactive) in the assay with MOLT-4; 3.4 µM (inactive) in the assay with BT-549; 3.33 µM (inactive) in the assay on NCI-H522. Besides, the GI50 was 4.22 µM (inactive) in the assay with TK-10; > 10 µM (inactive) in the assay on SK-OV-3; 2.72 µM (inactive) with SK-MEL-2; 4.85 µM (inactive) in the assay on HCT-116; 2.1 µM (inactive) in the assay with SF-295.
Turning to `CCOC(=O)/C(=C\NC(C)(C)C)c1nc2ccccc2o1`, the GI50 in the assay on CCRF-CEM is 16.3 µM (inactive); in the assay on A549, 42.4 µM (inactive); with ACHN, 27.6 µM (inactive); in the assay on IGROV-1, 51.9 µM (inactive); with SF-268 it was 37.8 µM (inactive); with UACC-62, 18.4 µM (inactive). The GI50 with SF-539 is 47.4 µM (inactive); in the assay with BT-549 it was 26.7 µM (inactive); in the assay on NCI-H522 it was 29.6 µM (inactive); in the assay on TK-10, 27.2 µM (inactive); with SK-OV-3, 92 µM (inactive); in the assay on COLO 205, 21.3 µM (inactive). The results for the GI50 with A498, with HCT-116 and with SF-295 were 27.9 µM (inactive), 37.3 µM (inactive) and 34 µM (inactive), respectively.
Take `COc1c(-c2nc3ccc(N4CCN(C)CC4)nc3[nH]2)cc(OC)c2[nH]c(COC(C)=O)nc12`: the GI50 in the assay on A549 was 39.5 µM (inactive); in the assay on U-251 it was 13.8 µM (inactive); in the assay with ACHN it was 30.3 µM (inactive); with IGROV-1 it was 65.9 µM (inactive); in the assay on SF-268, 61.8 µM (inactive); with UACC-62, 47.9 µM (inactive). For the same compound, the GI50 is 17.9 µM (inactive) in the assay with MDA-MB-231; 14.9 µM (inactive) in the assay with SF-539; 56.9 µM (inactive) in the assay on BT-549; 37.1 µM (inactive) in the assay on NCI-H522; 38.5 µM (inactive) with TK-10; 14.5 µM (inactive) in the assay with SK-OV-3. Besides, the GI50 in the assay with COLO 205 is 28.7 µM (inactive); with SK-MEL-2 it was 19.5 µM (inactive); with A498 it was 93.1 µM (inactive); in the assay on HCT-116, 20 µM (inactive); in the assay with SF-295, 34.4 µM (inactive).
Take `CC(Cc1ccc(O)cn1)(NC(=O)c1ccccc1)C(=O)O` (stereo not drawn): the GI50 with CCRF-CEM, with A549, in the assay with U-251, with ACHN, with IGROV-1 and in the assay on SF-268 was > 100 µM (inactive) in each case. Also, the GI50 with UACC-62, in the assay on PC-3, in the assay with MDA-MB-231, in the assay with SF-539, with MOLT-4 and in the assay with BT-549 was > 100 µM (inactive) throughout. The GI50 with NCI-H522, in the assay with TK-10, with SK-OV-3, in the assay with COLO 205, in the assay with SK-MEL-2 and in the assay with HCT-116 was > 100 µM (inactive) in each case. In addition, the GI50 in the assay with SF-295 was > 100 µM (inactive).
As for `N#CSC1CCCCNC1=O` (stereo not drawn), the GI50 with CCRF-CEM was 5.55 µM (inactive); with A549, 15.1 µM (inactive); with U-251, 11.2 µM (inactive); with ACHN it was 14.9 µM (inactive); in the assay on SF-268 it was 11.8 µM (inactive); in the assay on UACC-62, 12.3 µM (inactive). Also, the GI50 was 13.6 µM (inactive) with PC-3; 14.9 µM (inactive) in the assay on MDA-MB-231; 12.7 µM (inactive) with SF-539; 2.48 µM (inactive) with MOLT-4; 5.93 µM (inactive) in the assay on BT-549; 8.09 µM (inactive) in the assay on NCI-H522. Further, the GI50 in the assay on TK-10 is 16.1 µM (inactive); in the assay on SK-OV-3 it was 9.98 µM (inactive); with COLO 205 it was 15.5 µM (inactive); in the assay on SK-MEL-2 it was 11.4 µM (inactive); with HCT-116 it was 8.45 µM (inactive); in the assay on SF-295, 14.8 µM (inactive).
Turning to `O=C(Nc1ccccc1F)c1cc2ccc(O)cc2o/c1=N\c1ccccc1F`, the GI50 with CCRF-CEM was 1.5 µM (inactive); in the assay on A549, 2.31 µM (inactive); with U-251, 1.93 µM (inactive); in the assay with ACHN it was 2.23 µM (inactive); in the assay on IGROV-1, 2.23 µM (inactive); in the assay with SF-268, 2.27 µM (inactive). For the same compound, the GI50 with UACC-62 was 2.37 µM (inactive); in the assay on PC-3 it was 2.58 µM (inactive); with SF-539 it was 3.33 µM (inactive); in the assay on MOLT-4 it was 1.74 µM (inactive); in the assay on BT-549 it was 2.83 µM (inactive); in the assay on NCI-H522, 1.44 µM (inactive). The GI50 in the assay on SK-OV-3 was 25.4 µM (inactive); in the assay with COLO 205, 21.8 µM (inactive); in the assay on SK-MEL-2, 1.84 µM (inactive); in the assay with HCT-116, 2.06 µM (inactive); in the assay on SF-295 it was 2.84 µM (inactive).
On to `COc1cccc(C=C(C#N)C#N)c1OC`, for which the GI50 in the assay with CCRF-CEM is 83.6 µM (inactive); in the assay on A549 it was > 100 µM (inactive); with U-251, > 100 µM (inactive); with ACHN, > 100 µM (inactive); with IGROV-1 it was > 100 µM (inactive); in the assay with SF-268 it was > 100 µM (inactive). Besides, the GI50 with UACC-62, in the assay on PC-3, in the assay on SF-539, in the assay on MOLT-4, in the assay on BT-549 and in the assay with NCI-H522 was > 100 µM (inactive) each time. Moreover, the GI50 in the assay on TK-10 is > 100 µM (inactive); in the assay with SK-OV-3, 12.3 µM (inactive); with COLO 205, > 100 µM (inactive); with HCT-116, > 100 µM (inactive); in the assay on SF-295, > 100 µM (inactive).
For `COc1ccc(N2C(=O)/C(=C\c3cccc(Oc4ccccc4)c3)SC2c2ccccc2)cc1` (stereo not drawn), the GI50 was 5.3 µM (inactive) in the assay with CCRF-CEM; > 100 µM (inactive) in the assay with A549; 26.1 µM (inactive) in the assay on U-251; > 100 µM (inactive) in the assay on ACHN; 33.2 µM (inactive) in the assay with SF-268; 50.2 µM (inactive) with UACC-62. The GI50 was > 100 µM (inactive) with MDA-MB-231; 24.5 µM (inactive) in the assay on SF-539; 26.7 µM (inactive) in the assay with MOLT-4; 25.3 µM (inactive) in the assay on BT-549; 8.24 µM (inactive) in the assay with NCI-H522; > 100 µM (inactive) with TK-10. Also, the GI50 in the assay on SK-OV-3 was 80.9 µM (inactive); in the assay with COLO 205, 66.8 µM (inactive); with SK-MEL-2, > 100 µM (inactive); with A498 it was > 100 µM (inactive); in the assay with HCT-116, 25.4 µM (inactive); with SF-295, 60 µM (inactive).
In the case of `CC(=O)Oc1ccc2c(c1)oc1c3ccc(OC(C)=O)cc3n(C)c(=O)c21`, the GI50 with CCRF-CEM is 18.3 µM (inactive); with A549, 35.1 µM (inactive); with U-251 it was 55 µM (inactive); in the assay with ACHN it was 37.4 µM (inactive); in the assay on IGROV-1 it was 29.9 µM (inactive); with SF-268, 12.5 µM (inactive). The GI50 is 34.8 µM (inactive) in the assay on UACC-62; 22.1 µM (inactive) in the assay on PC-3; 27 µM (inactive) in the assay on MDA-MB-231; 27.1 µM (inactive) in the assay on SF-539; 25.1 µM (inactive) in the assay with MOLT-4; 93.1 µM (inactive) in the assay with BT-549. Also, the GI50 in the assay with TK-10 was 70.8 µM (inactive); with SK-OV-3 it was 14.8 µM (inactive); with COLO 205 it was 21.6 µM (inactive); in the assay with HCT-116, 20.9 µM (inactive); with SF-295, 36.7 µM (inactive).
For `CC(=O)OC1C(COC(=O)c2ccccc2)OC(Nc2ncc(-c3ccc(Br)cc3)s2)C(OC(=O)c2ccccc2)C1OC(=O)c1ccccc1` (stereo not drawn), the GI50 with A549, with U-251, in the assay with ACHN, in the assay on IGROV-1, in the assay with SF-268 and with UACC-62 was > 100 µM (inactive) throughout. Also, the GI50 in the assay with PC-3, in the assay on MDA-MB-231, in the assay on MOLT-4, with BT-549, in the assay with NCI-H522 and in the assay with TK-10 was > 100 µM (inactive) in each case. For the same compound, the GI50 with SK-OV-3 is > 100 µM (inactive); in the assay on COLO 205, > 100 µM (inactive); in the assay on SK-MEL-2, 14.5 µM (inactive); in the assay on HCT-116 it was > 100 µM (inactive); in the assay with SF-295 it was > 100 µM (inactive).
